From PMC3388095, “Fluorophore Labeled Kinase Detects Ligands That Bind within the MAPK Insert of p38α Kinase” (PLoS ONE, 2012)

Experiments:
Assay in all cases: Kinase selectivity profile, 33P-ATP filter-binding assay
Assay type in all cases: biochemical
[1] = target: Aurora B (Homo sapiens, UniProt Q96GD4)
Procedure: (§1) Figure 5 Kinase selectivity profile of 1b. Compound 1b was profiled against a selected panel of 95 different kinases at a concentration of 10 µM employing a radioactive (^33P-ATP) filter-binding assay (National Centre for Protein Kinase Profiling, Dundee). The numbers represent the remaining kinase activity in %. […] TEXT PRINTED IN THE PICTURE: no label printed: Aurora B: 53; MNK2: 67; MINK1: 69; HER4: 71; MKK1: 75; PKBβ: 75; PHK: 76; PIM2: 76; PIM3: 77; CHK2: 78; PKD1: 79; TBK1: 79; PAK4: 80; Lck: 80; GSK3β: 80; IGF-1R: 81; p38δ MAPK: 81; PIM1: 82; SRPK1: 83; SmMLCK: 83; MAPKAP-K3: 84; EPH A2: 85; MELK: 85; CK2: 85; CK1: 86; CAMK1: 86; PLK1: 87; MST2: 87; IR-HIS: 87; BTK: 87; HIPK1: 87; p38α MAPK: 88; DYRK2: 88; JNK3: 88; PAK5: 88; IKKε: 89; p38β MAPK: 89; NUAK1: 90; PAK2: 90; MNK1: 91; ERK8: 91; GCK: 91; PRAK: 91; MLK1: 92; SGK1: 92; PAK6: 92; TTK: 92; BRSK2: 92; MARK4: 93; CHK1: 93; RIPK2: 94; CDK2-Cyclin A: 94; JNK1: 94; AMPK: 94; VEG-FR: 95; DYRK1A: 95; CAMKKβ: 95; PKCα: 96; S6K1: 96; MSK1: 96; PKCz: 96; YES1: 96; RSK1: 97; IRAK4: 97; DYRK3: 97; IKKβ: 97; ERK2: 98; MLK3: 98; RSK2: 98; LKB1: 98; MAPKAP-K2: 98; ERK1: 99; FGF-R1: 99; SYK: 99; MST4: 99; MARK3: 99; MARK2: 100; PDK1: 100; JNK2: 101; HIPK2: 101; BRSK1: 102; EF2K: 102; PRK2: 103; Aurora A: 104; IRR: 104; CSK: 104; PKA: 104; NEK6: 105; p38γ MAPK: 105; Src: 107; PKBα: 109; ROCK 2: 109; EPH-B3: 112; HIPK3: 115; NEK2α: 119 DOUBTS OF THE COPYIST ABOUT THIS PICTURE: The picture prints no compound label and no measure or unit for the numbers; only the colour scale 'Inhibition weak/strong' is printed. / PKCz: the last letter may be z or ζ / NEK2α: the last letter may be a or α / IKKε: the last letter may be ε or e

[2] = target: BTK (Homo sapiens, UniProt Q06187)
Procedure: as §1

[3] = target: CAMKKβ (Homo sapiens, UniProt Q96RR4)
Procedure: as §1

[4] = target: CHK1 (Homo sapiens, UniProt O14757)
Procedure: as §1

[5] = target: EPH A2 (Homo sapiens, UniProt P29317)
Procedure: as §1

[6] = target: EPH-B3 (Homo sapiens, UniProt P54753)
Procedure: as §1

[7] = target: FGF-R1 (Homo sapiens, UniProt P11362)
Procedure: as §1

[8] = target: HER4 (Homo sapiens, UniProt Q15303)
Procedure: as §1

[9] = target: IKKβ (Homo sapiens, UniProt O14920)
Procedure: as §1

[10] = target: IR-HIS (Homo sapiens, UniProt P06213)
Procedure: as §1

[11] = target: IRAK4 (Homo sapiens, UniProt Q9NWZ3)
Procedure: as §1

[12] = target: IRR (Homo sapiens, UniProt P14616)
Procedure: as §1

[13] = target: Lck (Homo sapiens, UniProt P06239)
Procedure: as §1

[14] = target: MAPKAP-K3 (Homo sapiens, UniProt Q16644)
Procedure: as §1

[15] = target: MELK (Homo sapiens, UniProt Q14680)
Procedure: as §1

[16] = target: MKK1 (Homo sapiens, UniProt Q02750)
Procedure: as §1

[17] = target: MLK1 (Homo sapiens, UniProt P80192)
Procedure: as §1

[18] = target: MNK2 (Homo sapiens, UniProt Q9HBH9)
Procedure: as §1

[19] = target: MSK1 (Homo sapiens, UniProt O75582)
Procedure: as §1

[20] = target: NUAK1 (Homo sapiens, UniProt O60285)
Procedure: as §1

[21] = target: PAK2 (Homo sapiens, UniProt Q13177)
Procedure: as §1

[22] = target: PKD1 (Homo sapiens, UniProt Q15139)
Procedure: as §1

[23] = target: PLK1 (Homo sapiens, UniProt P53350)
Procedure: as §1

[24] = target: PRAK (Homo sapiens, UniProt Q8IW41)
Procedure: as §1

[25] = target: RIPK2 (Homo sapiens, UniProt O43353)
Procedure: as §1

[26] = target: RSK2 (Homo sapiens, UniProt P51812)
Procedure: as §1

[27] = target: SYK (Homo sapiens, UniProt P43405)
Procedure: as §1

IRR, sequence (P14616 27-1297): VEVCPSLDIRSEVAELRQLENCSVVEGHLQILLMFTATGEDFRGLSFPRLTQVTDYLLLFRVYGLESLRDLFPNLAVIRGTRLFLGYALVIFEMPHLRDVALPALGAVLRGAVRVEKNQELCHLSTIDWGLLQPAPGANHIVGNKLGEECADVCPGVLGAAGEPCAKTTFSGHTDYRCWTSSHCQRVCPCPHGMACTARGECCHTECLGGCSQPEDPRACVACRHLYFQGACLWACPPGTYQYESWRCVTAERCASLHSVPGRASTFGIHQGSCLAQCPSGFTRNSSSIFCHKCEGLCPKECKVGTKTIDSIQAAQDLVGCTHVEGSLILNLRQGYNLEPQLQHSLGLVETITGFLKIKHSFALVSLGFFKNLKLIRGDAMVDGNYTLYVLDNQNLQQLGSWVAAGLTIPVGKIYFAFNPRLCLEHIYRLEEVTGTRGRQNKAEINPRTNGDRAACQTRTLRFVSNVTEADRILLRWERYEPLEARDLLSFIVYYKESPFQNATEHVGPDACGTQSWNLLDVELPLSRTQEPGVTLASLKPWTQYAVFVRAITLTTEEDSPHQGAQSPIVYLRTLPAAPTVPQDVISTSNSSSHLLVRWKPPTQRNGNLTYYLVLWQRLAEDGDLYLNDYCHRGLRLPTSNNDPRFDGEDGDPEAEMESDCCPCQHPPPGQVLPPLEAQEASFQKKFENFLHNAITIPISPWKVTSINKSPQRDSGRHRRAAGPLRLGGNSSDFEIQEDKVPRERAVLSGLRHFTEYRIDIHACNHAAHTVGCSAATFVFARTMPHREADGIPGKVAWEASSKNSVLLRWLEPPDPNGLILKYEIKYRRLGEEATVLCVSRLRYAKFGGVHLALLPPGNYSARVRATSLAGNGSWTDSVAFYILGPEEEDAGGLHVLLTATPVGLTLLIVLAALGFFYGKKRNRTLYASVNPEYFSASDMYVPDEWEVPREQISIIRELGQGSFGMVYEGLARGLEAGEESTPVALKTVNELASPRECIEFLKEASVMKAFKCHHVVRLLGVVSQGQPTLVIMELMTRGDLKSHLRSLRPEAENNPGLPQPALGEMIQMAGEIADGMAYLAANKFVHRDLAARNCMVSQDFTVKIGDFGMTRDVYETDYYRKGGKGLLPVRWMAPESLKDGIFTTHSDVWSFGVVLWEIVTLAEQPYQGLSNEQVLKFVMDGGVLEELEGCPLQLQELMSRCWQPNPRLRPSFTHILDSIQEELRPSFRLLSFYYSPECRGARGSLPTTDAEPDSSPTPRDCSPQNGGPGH
MELK, sequence (Q14680 whole entry): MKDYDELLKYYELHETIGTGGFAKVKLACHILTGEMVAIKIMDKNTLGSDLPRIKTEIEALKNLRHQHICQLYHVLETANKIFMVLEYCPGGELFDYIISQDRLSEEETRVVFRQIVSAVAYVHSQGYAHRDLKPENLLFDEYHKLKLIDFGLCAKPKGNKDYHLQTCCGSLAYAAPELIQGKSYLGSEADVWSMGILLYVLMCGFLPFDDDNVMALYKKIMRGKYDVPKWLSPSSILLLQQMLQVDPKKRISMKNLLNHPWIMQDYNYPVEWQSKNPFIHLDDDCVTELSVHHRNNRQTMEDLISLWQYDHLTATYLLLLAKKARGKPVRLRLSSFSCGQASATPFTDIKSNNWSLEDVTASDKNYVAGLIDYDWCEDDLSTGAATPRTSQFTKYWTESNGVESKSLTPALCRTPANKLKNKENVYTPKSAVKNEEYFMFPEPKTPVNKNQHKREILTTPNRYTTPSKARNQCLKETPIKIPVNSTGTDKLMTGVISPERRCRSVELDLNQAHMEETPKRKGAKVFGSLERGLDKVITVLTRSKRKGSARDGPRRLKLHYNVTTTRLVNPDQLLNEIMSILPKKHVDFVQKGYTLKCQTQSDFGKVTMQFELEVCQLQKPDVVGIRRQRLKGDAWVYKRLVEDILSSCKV
IR-HIS, sequence (P06213 28-1382): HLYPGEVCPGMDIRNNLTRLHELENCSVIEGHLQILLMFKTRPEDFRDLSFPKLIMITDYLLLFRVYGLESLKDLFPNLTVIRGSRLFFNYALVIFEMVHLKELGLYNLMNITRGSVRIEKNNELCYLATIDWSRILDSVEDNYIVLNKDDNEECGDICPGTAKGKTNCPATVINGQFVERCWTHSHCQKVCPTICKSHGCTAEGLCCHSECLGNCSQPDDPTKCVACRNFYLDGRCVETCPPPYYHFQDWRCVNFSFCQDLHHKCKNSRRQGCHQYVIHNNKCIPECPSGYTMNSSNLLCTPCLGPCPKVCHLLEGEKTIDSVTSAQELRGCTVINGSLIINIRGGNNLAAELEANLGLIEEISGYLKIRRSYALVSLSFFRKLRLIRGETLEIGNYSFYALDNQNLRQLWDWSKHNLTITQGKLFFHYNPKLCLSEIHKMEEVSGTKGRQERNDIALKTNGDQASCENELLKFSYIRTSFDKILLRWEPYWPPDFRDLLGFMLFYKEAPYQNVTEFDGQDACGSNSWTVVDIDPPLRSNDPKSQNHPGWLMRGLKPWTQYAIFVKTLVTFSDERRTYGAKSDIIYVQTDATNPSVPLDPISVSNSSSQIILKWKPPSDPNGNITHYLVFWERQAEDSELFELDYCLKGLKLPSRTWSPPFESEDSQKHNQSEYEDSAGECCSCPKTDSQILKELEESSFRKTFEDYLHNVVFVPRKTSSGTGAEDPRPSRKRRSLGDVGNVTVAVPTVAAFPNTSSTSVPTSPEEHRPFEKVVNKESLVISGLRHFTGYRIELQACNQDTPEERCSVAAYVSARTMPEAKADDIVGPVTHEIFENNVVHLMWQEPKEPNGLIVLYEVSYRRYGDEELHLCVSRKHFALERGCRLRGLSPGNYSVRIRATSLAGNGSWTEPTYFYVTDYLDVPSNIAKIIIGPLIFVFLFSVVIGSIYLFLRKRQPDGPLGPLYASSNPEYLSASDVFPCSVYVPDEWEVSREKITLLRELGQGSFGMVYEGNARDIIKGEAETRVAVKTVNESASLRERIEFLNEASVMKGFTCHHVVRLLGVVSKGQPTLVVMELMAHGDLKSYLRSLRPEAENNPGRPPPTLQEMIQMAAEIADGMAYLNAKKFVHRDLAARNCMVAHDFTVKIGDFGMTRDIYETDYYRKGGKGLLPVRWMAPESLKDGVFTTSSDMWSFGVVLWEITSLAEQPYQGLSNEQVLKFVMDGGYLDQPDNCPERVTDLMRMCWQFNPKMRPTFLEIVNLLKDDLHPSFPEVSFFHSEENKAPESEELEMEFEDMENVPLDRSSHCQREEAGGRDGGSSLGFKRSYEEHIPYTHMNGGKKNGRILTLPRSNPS
MAPKAP-K3, sequence (Q16644 whole entry): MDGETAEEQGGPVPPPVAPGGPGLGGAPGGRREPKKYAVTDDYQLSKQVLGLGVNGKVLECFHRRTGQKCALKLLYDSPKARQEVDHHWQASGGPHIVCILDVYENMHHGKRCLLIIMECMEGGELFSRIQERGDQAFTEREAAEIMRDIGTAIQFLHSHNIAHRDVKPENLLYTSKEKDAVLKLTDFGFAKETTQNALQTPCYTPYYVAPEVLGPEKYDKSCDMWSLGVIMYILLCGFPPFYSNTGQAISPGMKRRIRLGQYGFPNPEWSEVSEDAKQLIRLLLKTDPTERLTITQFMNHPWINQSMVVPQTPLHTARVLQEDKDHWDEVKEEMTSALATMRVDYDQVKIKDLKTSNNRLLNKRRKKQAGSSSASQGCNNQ
CAMKKβ, sequence (Q96RR4 whole entry): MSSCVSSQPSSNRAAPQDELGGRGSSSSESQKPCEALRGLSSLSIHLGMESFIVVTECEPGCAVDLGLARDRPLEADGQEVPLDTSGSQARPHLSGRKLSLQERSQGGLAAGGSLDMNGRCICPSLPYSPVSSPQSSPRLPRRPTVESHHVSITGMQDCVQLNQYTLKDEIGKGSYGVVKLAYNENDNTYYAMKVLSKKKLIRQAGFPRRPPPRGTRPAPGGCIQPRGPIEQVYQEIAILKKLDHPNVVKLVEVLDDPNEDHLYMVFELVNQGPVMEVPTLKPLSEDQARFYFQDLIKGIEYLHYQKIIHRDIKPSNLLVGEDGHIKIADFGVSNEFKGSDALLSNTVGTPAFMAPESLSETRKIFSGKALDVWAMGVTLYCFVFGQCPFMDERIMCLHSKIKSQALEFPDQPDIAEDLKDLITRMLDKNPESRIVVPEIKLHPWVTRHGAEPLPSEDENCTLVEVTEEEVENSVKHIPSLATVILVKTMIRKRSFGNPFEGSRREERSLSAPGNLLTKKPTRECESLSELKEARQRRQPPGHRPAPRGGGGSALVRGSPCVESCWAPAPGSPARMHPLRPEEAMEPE
MSK1, sequence (O75582 whole entry): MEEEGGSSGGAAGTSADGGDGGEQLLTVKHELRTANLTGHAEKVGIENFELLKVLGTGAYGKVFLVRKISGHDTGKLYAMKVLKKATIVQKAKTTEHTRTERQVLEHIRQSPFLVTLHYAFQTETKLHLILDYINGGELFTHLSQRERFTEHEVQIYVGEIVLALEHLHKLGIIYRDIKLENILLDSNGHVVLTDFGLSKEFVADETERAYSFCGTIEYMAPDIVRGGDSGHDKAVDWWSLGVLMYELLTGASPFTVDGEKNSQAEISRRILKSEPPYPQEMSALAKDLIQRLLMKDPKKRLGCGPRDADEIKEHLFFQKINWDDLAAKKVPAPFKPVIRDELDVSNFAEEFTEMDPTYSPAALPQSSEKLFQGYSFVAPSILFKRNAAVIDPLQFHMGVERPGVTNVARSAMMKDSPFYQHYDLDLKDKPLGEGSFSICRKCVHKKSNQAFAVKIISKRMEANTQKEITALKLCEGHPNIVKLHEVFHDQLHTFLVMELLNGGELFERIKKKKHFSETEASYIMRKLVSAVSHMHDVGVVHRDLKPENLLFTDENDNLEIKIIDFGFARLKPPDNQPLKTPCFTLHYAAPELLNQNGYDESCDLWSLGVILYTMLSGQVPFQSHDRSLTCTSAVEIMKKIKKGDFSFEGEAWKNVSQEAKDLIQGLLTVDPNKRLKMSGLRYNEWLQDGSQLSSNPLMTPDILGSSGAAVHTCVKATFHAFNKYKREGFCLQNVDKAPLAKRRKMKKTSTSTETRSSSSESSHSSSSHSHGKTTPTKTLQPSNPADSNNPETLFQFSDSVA

Nc1ccc2c(NC3CC3)nc(-c3ccccc3)nc2c1 [1b, N^4-Cyclopropyl-2-phenyl-4,7-quinazolinediamine]
remaining activity at 10 µM [1]: 53%
remaining activity at 10 µM [2]: 87%
remaining activity at 10 µM [3]: 95%
remaining activity at 10 µM [4]: 93%
remaining activity at 10 µM [5]: 85%
remaining activity at 10 µM [6]: 112%
remaining activity at 10 µM [7]: 99%
remaining activity at 10 µM [8]: 71%
remaining activity at 10 µM [9]: 97%
remaining activity at 10 µM [10]: 87%
remaining activity at 10 µM [11]: 97%
remaining activity at 10 µM [12]: 104%
remaining activity at 10 µM [13]: 80%
remaining activity at 10 µM [14]: 84%
remaining activity at 10 µM [15]: 85%
remaining activity at 10 µM [16]: 75%
remaining activity at 10 µM [17]: 92%
remaining activity at 10 µM [18]: 67%
remaining activity at 10 µM [19]: 96%
remaining activity at 10 µM [20]: 90%
remaining activity at 10 µM [21]: 90%
remaining activity at 10 µM [22]: 79%
remaining activity at 10 µM [23]: 87%
remaining activity at 10 µM [24]: 91%
remaining activity at 10 µM [25]: 94%
remaining activity at 10 µM [26]: 98%
remaining activity at 10 µM [27]: 99%
